Source: patent publication US6664442B2, “Selecting compounds to reduce inflammation associated with Alzheimer's disease” (Elan Pharmaceuticals, Inc., priority 2000, dated 2003)

Key:
Type in all cases: in vivo, mouse
MCP-1 = experiment: mRNA expression of MCP-1 in PDAPP mice immunized with Aβ1-42 or a fragment, quantitative RT-PCR; conditions: tissue not given
Source text: (§1) RNA was isolated from brain tissues using the S.N.A.P.™ Total RNA Isolation Kit (Invitrogen, Carlsbad, Calif.) according to manufacturer's instructions, with the following modifications: the tissue was homogenized for 20 seconds using a rotor-stator homogenizer (Fisher Scientific). The DNA digestion step was repeated a second time following isopropanol precipitation.
(§2) Quantitative PCR assays were run on a Perkin Elmer 7700 Sequencer using methods and materials provided by Perkin Elmer (Applied Biosystems Division, Foster City, Calif.). Primers and fluorescent probes were obtained from Perkin Elmer; the sequences and concentrations of primers and probes used for the various assays are listed in Table 1 below. PCR reactions were set up using approximately 300 nM concentrations of each of the forward and reverse primers, 100 nM probe and RNA extracted from the tissue of interest (20 ng). Each reaction also included a standard RNA for comparison. Data were normalized to total RNA or to GAPDH. Standard curves were run using standard RNA prepared from the appropriate tissue (e.g., brain total RNA). Sample results were normalized to the amount of RNA measured by OD and or control message (e.g., GAPDH).
(§3) Thus, the efficacy of Aβ-treatment can be assessed by comparing the mRNA expression of such markers.

IFN-γ = experiment: mRNA expression of IFN-γ in PDAPP mice immunized with Aβ1-42 or a fragment, quantitative RT-PCR; conditions: tissue not given
Source text: as §1, §2, §3

CD4 = experiment: mRNA expression of CD4 in PDAPP mice immunized with Aβ1-42 or a fragment, quantitative RT-PCR; conditions: tissue not given
Source text: as §1, §2, §3

Igk = experiment: mRNA expression of Igk in PDAPP mice immunized with Aβ1-42 or a fragment, quantitative RT-PCR; conditions: tissue not given
Source text: as §1, §2, §3

IgG-1 = experiment: mRNA expression of IgG-1 in PDAPP mice immunized with Aβ1-42 or a fragment, quantitative RT-PCR; conditions: Fr cortex
Source text: as §1, §2, §3

Row | Substance | MCP-1 mRNA, ratio of Aβ-treated mice to non-Aβ-treated mice (MCP-1) [X] | IFN-γ mRNA, ratio of Aβ-treated mice to non-Aβ-treated mice (IFN-γ) | CD4 mRNA, ratio of Aβ-treated mice to non-Aβ-treated mice (CD4) [X] | Igk mRNA, ratio of Aβ-treated mice to non-Aβ-treated mice (Igk) [X] | IgG-1 mRNA, ratio of Aβ-treated mice to non-Aβ-treated mice (IgG-1) [X]
1 | Aβ1-5: fragment of Aβ1-42 used to immunize PDAPP mice (DAEFR; Amyloid-beta protein 42; UniProt P05067 672-676, looked up, fragment) | 0.75 | .8X | 0.99 | 2.10 | –
2 | Aβ1-42: amyloid β-peptide 1-42 used to immunize PDAPP mice | – | – | – | – | 300
